Assay [1] concerns MDCK cells. The assay can be described thus: Cisplatin induced in vitro kidney cell apoptosis (mitochondria membrane potential, DiOC6 staining). It is filed as cell-based, canine. To be noted: given after 50 µM cisplatin for 4 hrs, FIG 1A. The protocol: Madin-Darby canine kidney (MDCK) cells (1.5 x 10^5 cells/mL) were cultured and maintained in Dulbecco's modified Eagle medium (DMEM) supplemented with 10% fetal bovine serum (FBS), 100 units/mL penicillin, […] streptomycin, 2mM L-glutamine, non-essential amino acids and sodium pyruvate, and maintained in 5% CO2 at 37 °C until reached 80% confluence, then were subject to cell passages.
MDCK cells were cultured in according to procedures described in the "Materials and Methods" section. To start the experiment, MDCK cells were first incubated with 50 µM cisplatin for 4 hrs, then various concentrations of the compound of formula (I) (50µg/mL or 100 µg/mL) or the YKII-10 composition of example 1.2 (25 to 100 µg/mL) were given to cisplatin-treated cells and further incubated for another 24 hrs. Mitochondria membrane potentials were then measured by staining the live cells with fluorescent dyes (e.g., 50 nM DiOC6), in which 50 nM DiOC6 were added to cells and incubated at 37 °C for 30 min. The cells were then washed twice with phosphate buffer solution before subjecting to microscopy analysis using the inverted fluorescent microscope. […] Results are illustrated in FIGs 1A and 1B.

In assay [2] the test system is Blb/c mice. The assay can be described thus: Lipopolysaccharide (LPS) induced in vivo kidney inflammation (urine protein). The note with it: oral 100 mg/Kg; LPS 2.5 mg/Kg/day i.p. for 5 days; urine on fifth and tenth day; FIG 3. The protocol: Blb/c mice were kept in pathogen-free environment under 12:12 light-dark cycle with food (laboratory rodent diet 5001 purchased from PMI Nutrition International Inc. MO, USA) and water (i.e., distilled water) provided ad libitum, ambient temperature and relative humidity were respectively set at 22±3 °C and 50±20%. All procedures involving animal studies of the present disclosure comply with the "Guideline for the Care and Use of Laboratory Animals" issued by The Chinese-Taipei Society of Laboratory Animal Sciences.
In this example, to evaluate the therapeutic or prophylactic function of the compositon of example 1.2, animals were first injected intraperitoneally with lipopolysaccharide (LPS) to induce in vivo kidney inflammation before being subect to the treatment of the compositon of example 1.2.
Blb/c mice (6 weeks old) were randomly assigned to two groups, and injected intraperitoneally with lipopolysaccharide (LPS, 2.5 mg/Kg/day) for 5 consecutive days so as to induce kidney inflammation. […] Unine sampls were respectively collected on the fifth and the tenth day after the experiment started, and analyzed for the level of urine protein therein. […]

This note sets out measurements from EP2955191A1, “Compound, composition and method for treating and/or ameoliorating kidney disease” (Trineo Biotechnology Co. Ltd, priority 2014, dated 2015).

In the case of `C[C@H](CCC(=O)O)[C@H]1C[C@H](O)[C@@]2(C)C3=C(C(=O)C[C@]12C)[C@@]1(C)CCC(=O)C(C)(C)[C@@H]1C[C@@H]3O` [compound of formula (I)], the “reversing cisplatin-induced apoptosis of MDCK cell” value in assay [1] (50µg/mL or 100 µg/mL for 24 hrs) is “capable of reversing”. Also, the “recovery on the membrane potential” value in assay [1] (100 µg/mL for 24 hrs, MDCK cells) is “about 80%”. Moreover, in assay [2], the urine protein level result was “effective in reducing”.
